Results: patent publication US9149038B2, “4-amino-6-(heterocyclic)picolinates and 6-amino-2-(heterocyclic)pyrimidine-4-carboxylates and their use as herbicides” (Dow AgroSciences LLC, priority 2013, dated 2015)
Where two headings read alike, the source gives them in different places.

Key:
[1] = test system: Key Broadleaf Weed and Crop Species; assay: Post-Emergent Test II: postemergent herbicidal activity, visual rating after 14 d (Table 7); format: in vivo; conditions: post-emergence, 336 h; for pest or weed control at 35 g/ha: 35 g ai/ha; for pest or weed control at 70 g/ha: 70 g ai/ha; for pest or weed control at 140 g/ha: 140 g ai/ha; for pest or weed control at 280 g/ha: 280 g ai/ha
Method in brief: (§1)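 Plants were raised in a greenhouse for 7-21 d and treated once at the first or second true leaf stage. Compounds, dissolved in 97:3 acetone:DMSO then diluted into an aqueous acetone/isopropanol/crop oil/Triton X-155 carrier, were applied by overhead track sprayer at 187 L/ha. After 14 d with subirrigation, injury was scored visually from 0 (none) to 100 (complete kill).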

[2] = test system: Key Grass and Sedge Weeds as well as Grass Crops; assay: Post-Emergent Test II: postemergent herbicidal activity, visual rating after 14 d (Table 8); format: in vivo; conditions: post-emergence, 336 h; for pest or weed control at 35 g/ha: 35 g ai/ha; for pest or weed control at 70 g/ha: 70 g ai/ha; for pest or weed control at 140 g/ha: 140 g ai/ha; for pest or weed control at 280 g/ha: 280 g ai/ha
Method in brief: as §1

[3] = ABUTH: velvetleaf (Abutilon theophrasti), read-out: Visual Growth Reduction (%) 14 Days After Application ABUTH
[4] = AMARE: redroot pigweed (Amaranthus retroflexus), read-out: Visual Growth Reduction (%) 14 Days After Application AMARE
[5] = BRSNN: oilseed rape, canola (Brassica napus), read-out: Visual Growth Reduction (%) 14 Days After Application BRSNN
[6] = CHEAL: lambsquarters (Chenopodium album), read-out: Visual Growth Reduction (%) 14 Days After Application CHEAL
[7] = EPHHL: wild poinsettia (Euphorbia heterophylla), read-out: Visual Growth Reduction (%) 14 Days After Application EPHHL
[8] = HELAN: sunflower (Helianthus annuus), read-out: Visual Growth Reduction (%) 14 Days After Application HELAN
[9] = barnyardgrass (Echinochloa crus-galli), read-out: Visual Growth Reduction (%) 14 Days After Application, ECHCG
[10] = giant foxtail (Setaria faberi), read-out: Visual Growth Reduction (%) 14 Days After Application, SETFA
[11] = maize, corn (Zea mays), read-out: Visual Growth Reduction (%) 14 Days After Application, ZEAMX
[12] = rice (Oryza sativa), read-out: Visual Growth Reduction (%) 14 Days After Application, ORYSA
[13] = wheat, spring (Triticum aestivum), read-out: Visual Growth Reduction (%) 14 Days After Application, TRZAS
[14] = yellow nutsedge (Cyperus esculentus), read-out: Visual Growth Reduction (%) 14 Days After Application, CYPES

SMILES: COC(=O)c1nc(-c2ccc3c(c2F)OC(F)(F)C3(F)F)cc(N)c1Cl [Compound 106]
- pest or weed control at 35 g/ha [1, 3]: 45 to 59%
- pest or weed control at 70 g/ha [1, 3]: 75 to 84%
- pest or weed control at 140 g/ha [1, 3]: 75 to 84%
- pest or weed control at 280 g/ha [1, 3]: 85 to 94%
- pest or weed control at 35 g/ha [1, 4]: 30 to 44%
- pest or weed control at 70 g/ha [1, 4]: 30 to 44%
- pest or weed control at 140 g/ha [1, 4]: 60 to 74%
- pest or weed control at 280 g/ha [1, 4]: 75 to 84%
- pest or weed control at 35 g/ha [1, 5]: 0 to 29%
- pest or weed control at 70 g/ha [1, 5]: 0 to 29%
- pest or weed control at 140 g/ha [1, 5]: 0 to 29%
- pest or weed control at 280 g/ha [1, 5]: 0 to 29%
- pest or weed control at 35 g/ha [1, 6]: 0 to 29%
- pest or weed control at 70 g/ha [1, 6]: 0 to 29%
- pest or weed control at 140 g/ha [1, 6]: 45 to 59%
- pest or weed control at 280 g/ha [1, 6]: 75 to 84%
- pest or weed control at 35 g/ha [1, 7]: 45 to 59%
- pest or weed control at 70 g/ha [1, 7]: 60 to 74%
- pest or weed control at 140 g/ha [1, 7]: 75 to 84%
- pest or weed control at 280 g/ha [1, 7]: 75 to 84%
- pest or weed control at 35 g/ha [1, 8]: 0 to 29%
- pest or weed control at 70 g/ha [1, 8]: 0 to 29%
- pest or weed control at 140 g/ha [1, 8]: 0 to 29%
- pest or weed control at 280 g/ha [1, 8]: 30 to 44%
- pest or weed control at 35 g/ha [2, 9]: 0 to 29%
- pest or weed control at 70 g/ha [2, 9]: 0 to 29%
- pest or weed control at 140 g/ha [2, 9]: 0 to 29%
- pest or weed control at 280 g/ha [2, 9]: 0 to 29%
- pest or weed control at 35 g/ha [2, 10]: 0 to 29%
- pest or weed control at 70 g/ha [2, 10]: 0 to 29%
- pest or weed control at 140 g/ha [2, 10]: 0 to 29%
- pest or weed control at 280 g/ha [2, 10]: 0 to 29%
- pest or weed control at 35 g/ha [2, 11]: 0 to 29%
- pest or weed control at 70 g/ha [2, 11]: 0 to 29%
- pest or weed control at 140 g/ha [2, 11]: 0 to 29%
- pest or weed control at 280 g/ha [2, 11]: 0 to 29%
- pest or weed control at 35 g/ha [2, 12]: 0 to 29%
- pest or weed control at 70 g/ha [2, 12]: 0 to 29%
- pest or weed control at 140 g/ha [2, 12]: 0 to 29%
- pest or weed control at 280 g/ha [2, 12]: 0 to 29%
- pest or weed control at 35 g/ha [2, 13]: 0 to 29%
- pest or weed control at 70 g/ha [2, 13]: 0 to 29%
- pest or weed control at 140 g/ha [2, 13]: 0 to 29%
- pest or weed control at 280 g/ha [2, 13]: 0 to 29%
- pest or weed control at 35 g/ha [2, 14]: 0 to 29%
- pest or weed control at 70 g/ha [2, 14]: 0 to 29%
- pest or weed control at 140 g/ha [2, 14]: 0 to 29%
- pest or weed control at 280 g/ha [2, 14]: 0 to 29%

SMILES: COC(=O)c1nc(-c2ccc(F)c3c2OCO3)c(F)c(N)c1Cl [Compound 83]
- pest or weed control at 35 g/ha [1, 3]: 85 to 94%
- pest or weed control at 70 g/ha [1, 3]: 85 to 94%
- pest or weed control at 140 g/ha [1, 3]: 95 to 100%
- pest or weed control at 35 g/ha [1, 4]: 95 to 100%
- pest or weed control at 70 g/ha [1, 4]: 95 to 100%
- pest or weed control at 140 g/ha [1, 4]: 95 to 100%
- pest or weed control at 35 g/ha [1, 5]: 30 to 44%
- pest or weed control at 70 g/ha [1, 5]: 95 to 100%
- pest or weed control at 140 g/ha [1, 5]: 95 to 100%
- pest or weed control at 35 g/ha [1, 6]: 95 to 100%
- pest or weed control at 70 g/ha [1, 6]: 95 to 100%
- pest or weed control at 140 g/ha [1, 6]: 95 to 100%
- pest or weed control at 35 g/ha [1, 7]: 0 to 29%
- pest or weed control at 70 g/ha [1, 7]: 0 to 29%
- pest or weed control at 140 g/ha [1, 7]: 0 to 29%
- pest or weed control at 35 g/ha [1, 8]: 85 to 94%
- pest or weed control at 70 g/ha [1, 8]: 95 to 100%
- pest or weed control at 140 g/ha [1, 8]: 95 to 100%
- pest or weed control at 35 g/ha [2, 9]: 0 to 29%
- pest or weed control at 70 g/ha [2, 9]: 0 to 29%
- pest or weed control at 140 g/ha [2, 9]: 0 to 29%
- pest or weed control at 35 g/ha [2, 10]: 0 to 29%
- pest or weed control at 70 g/ha [2, 10]: 0 to 29%
- pest or weed control at 140 g/ha [2, 10]: 0 to 29%
- pest or weed control at 35 g/ha [2, 11]: 0 to 29%
- pest or weed control at 70 g/ha [2, 11]: 0 to 29%
- pest or weed control at 140 g/ha [2, 11]: 0 to 29%
- pest or weed control at 35 g/ha [2, 12]: 0 to 29%
- pest or weed control at 70 g/ha [2, 12]: 0 to 29%
- pest or weed control at 140 g/ha [2, 12]: 0 to 29%
- pest or weed control at 35 g/ha [2, 13]: 0 to 29%
- pest or weed control at 70 g/ha [2, 13]: 0 to 29%
- pest or weed control at 140 g/ha [2, 13]: 0 to 29%
- pest or weed control at 35 g/ha [2, 14]: 0 to 29%
- pest or weed control at 70 g/ha [2, 14]: 0 to 29%
- pest or weed control at 140 g/ha [2, 14]: 0 to 29%
